Laboratory results taken from BindingDB's records for patent US10377742 (Rigel Pharmaceuticals, 2019).

Biological target: 5'-AMP-activated protein kinase catalytic subunit alpha-2 (Homo sapiens, UniProt P54646)
Assay: enzyme-linked immunosorbent assay
Description: Compounds were assayed for their ability to activate AMPK using an enzyme-linked immunosorbent assay. Reagents and procedures for measuring AMPK activation are well known and kits for AMPK activation assays are commercially available.

Sequence of 5'-AMP-activated protein kinase catalytic subunit alpha-2 (P54646 whole entry): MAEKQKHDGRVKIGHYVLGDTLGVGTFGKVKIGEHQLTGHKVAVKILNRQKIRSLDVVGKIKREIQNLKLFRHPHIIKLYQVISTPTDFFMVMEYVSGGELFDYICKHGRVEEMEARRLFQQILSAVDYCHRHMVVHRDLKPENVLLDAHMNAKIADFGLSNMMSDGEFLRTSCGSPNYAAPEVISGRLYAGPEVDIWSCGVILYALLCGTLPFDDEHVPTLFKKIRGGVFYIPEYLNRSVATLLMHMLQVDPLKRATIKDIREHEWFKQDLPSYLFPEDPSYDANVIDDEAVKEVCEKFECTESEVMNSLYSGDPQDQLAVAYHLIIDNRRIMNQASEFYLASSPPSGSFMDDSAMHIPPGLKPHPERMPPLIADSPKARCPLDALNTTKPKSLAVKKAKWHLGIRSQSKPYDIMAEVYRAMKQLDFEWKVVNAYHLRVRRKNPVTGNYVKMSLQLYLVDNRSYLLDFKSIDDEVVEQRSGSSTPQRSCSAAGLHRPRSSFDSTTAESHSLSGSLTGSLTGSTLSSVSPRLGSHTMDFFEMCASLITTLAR

EC50 | SMILES
> 1000 nM | O=C(Nc1ccccc1-c1ccccc1)c1ccc(C(=O)N2CCN(Cc3ccc(F)cc3)CC2)cn1 [US10377742, Compound 19]
> 1000 nM | O=C(Nc1ccc(-c2ccc([N+](=O)[O-])cc2)cc1)c1ccc(C(=O)N2CCN(Cc3ccc(F)cc3)CC2)cn1 [US10377742, Compound 20]
